Key:
NB-4 [1] = test: Antiproliferative activity against human NB4 cells after 48 hrs; assay type: functional, cell-based; conditions: NB-4, 48 h
NB-4 [2] = test: Induction of apoptosis in human NB4 cells assessed as necrotic cells at 2.5 uM after 48 hrs using annexin V-fluos/propidium iodide staining by cytofluorimetric analysis; assay type: functional
NB-4 [3] = test: Induction of apoptosis in human NB4 cells assessed as early apoptotic cells at 2.5 uM after 48 hrs using annexin V-fluos/propidium iodide staining by cytofluorimetric analysis; assay type: functional
NB-4 [4] = test: Induction of apoptosis in human NB4 cells assessed as late apoptotic cells at 2.5 uM after 48 hrs using annexin V-fluos/propidium iodide staining by cytofluorimetric analysis; assay type: functional
NB-4 [5] = test: Induction of apoptosis in human NB4 cells assessed as viable cells at 2.5 uM after 48 hrs using annexin V-fluos/propidium iodide staining by cytofluorimetric analysis; assay type: functional; conditions: NB-4, 48 h, read-out: Activity
NB-4 [6] = test: Induction of apoptosis in human NB4 cells assessed as necrotic cells at 5 uM after 48 hrs using annexin V-fluos/propidium iodide staining by cytofluorimetric analysis; assay type: functional
NB-4 [7] = test: Induction of apoptosis in human NB4 cells assessed as early apoptotic cells at 5 uM after 48 hrs using annexin V-fluos/propidium iodide staining by cytofluorimetric analysis; assay type: functional
NB-4 [8] = test: Induction of apoptosis in human NB4 cells assessed as late apoptotic cells at 5 uM after 48 hrs using annexin V-fluos/propidium iodide staining by cytofluorimetric analysis; assay type: functional
NB-4 [9] = test: Induction of apoptosis in human NB4 cells assessed as viable cells at 5 uM after 48 hrs using annexin V-fluos/propidium iodide staining by cytofluorimetric analysis; assay type: functional; conditions: NB-4, 48 h, read-out: Activity

## C[C@H]1N=C(c2ccccc2)c2cc(C#CCCCC(=O)NO)ccc2N(C)C1=O
NB-4 [1]
  IC50: 4.8 µM
NB-4 [2]
  Activity: 0.4%
NB-4 [3]
  Activity: 1.5%
NB-4 [4]
  Activity: 8.3%
NB-4 [5]
  viability at 2.5 µM: 89.8%

## CN1C(=O)CN=C(c2ccccc2)c2cc(C#CCCCC(=O)NO)ccc21
NB-4 [1]
  IC50: 0.62 µM

## C[C@@H]1N=C(c2ccccc2)c2cc(NC(=O)CCCCCCC(=O)NO)ccc2N(C)C1=O
NB-4 [1]
  IC50: 5.83 µM

## C[C@H]1N=C(c2ccccc2)c2cc(NC(=O)CCCCCCC(=O)NO)ccc2N(C)C1=O
NB-4 [1]
  IC50: 3.71 µM

## CN1C(=O)CN=C(c2ccccc2)c2cc(NC(=O)CCCCCCC(=O)NO)ccc21
NB-4 [1]
  IC50: 2.5 µM

## C[C@@H]1N=C(c2ccccc2)c2cc(C#CCCCC(=O)NO)ccc2N(C)C1=O
NB-4 [1]
  IC50: 0.61 µM
NB-4 [2]
  Activity: 0.6%
NB-4 [3]
  Activity: 30.8%
NB-4 [4]
  Activity: 56.6%
NB-4 [5]
  viability at 2.5 µM: 12%

## CC1N=C(c2ccccc2)c2cc(NC(=O)CCCCCCC(=O)NO)ccc2N(C)C1=O (racemic)
NB-4 [1]
  IC50: 4.09 µM

## CC1N=C(c2ccccc2)c2cc(C#CCCCC(=O)NO)ccc2N(C)C1=O (racemic)
NB-4 [1]
  IC50: 1.26 µM
NB-4 [6]
  Activity: 1.7%
NB-4 [7]
  Activity: 35.6%
NB-4 [8]
  Activity: 54.1%
NB-4 [9]
  viability at 5 µM: 8.6%
